Experimental findings from patent EP4799646A1, “COMPOSITION AND METHOD FOR INCREASING BIOAVAILABILITY OF ACTIVE INGREDIENT” (Everfront Biotech Inc., priority 2023, dated 2025) are described below.

Data set [1] deals with pancreatic cancer cell lines Mia-PaCa2. Put plainly: MTT assay, IC50 against pancreatic cancer cells (cytotoxicity study II). Format: cell-based. As to conditions: Homo sapiens. As for the experimental part:
The culture medium in each well of the cell culture plates was removed, and MTT reagent was added (to reach a final concentration of 0.5 mg/mL in each well). The plates were then placed in a 37°C, 5% CO2 incubator for 2 to 4 hours to form purple needle-like formazan crystals. Subsequently, the solution was aspirated, and 500 µL of dimethyl sulfoxide (DMSO) was added to each well. After shaking with a shaker for 5 to 10 minutes to completely dissolve the purple crystals, the absorbance at a wavelength of 570 or 595 nm was measured using an ELISA reader. The survival rate of the cells was calculated based on the absorbance, with the blank group as the baseline (the survival rate of the blank group was set to 100%). The data of the experimental group serum collected 2 hours after oral administration of the soft capsules are shown in FIG. 7; the data of the experimental group serum collected at 1, 4, 8, or 24 hours are shown in FIG. 8.
Cell cultures in this example were all conducted in an environment of 95% relative humidity, 5% CO2, and 37°C.
Pancreatic cancer cell lines Mia-PaCa2 were grouped and respectively cultured in 96-well cell culture plates for 24 hours using the following culture media: • 1. "Z-BP" Group: Mia-PaCa2 cell culture medium supplemented with Z-BP. • 2. […]
(In general: Formazan colour is commonly taken as a measure of viable cells.)

The nature of data set [2]: Appearance (phase separation) of compositions after preparation; solubility of BP in sesame oil. Type of data set: physicochemical. The note with it: concluded from absence of phase separation in Compositions 1 to 4. The procedure: In a glass bottle, components were mixed with the dosage ratios shown in Table 1 to provide a mixture, and the mixture was rapidly stirred with a magnetic stirrer for 20 minutes to form a homogeneous liquid, thereby respectively preparing Compositions 1 to 4. After removing the magnetic stirrer, the glass bottle was tightly sealed and its appearance was observed and photographed, the results are shown in FIG. 1. Table 1: Volume Percentages of Composition in Compositions 1 to 4.

Converted amounts (≈) assume the structure as drawn. Read-outs that look alike come from different tables or passages of the source.

With `CCC/C=C1\OC(=O)C2=C1CCC=C2` [LG, Ligustilide], the IC50 in data set [1] (MIA PaCa-2, Mia-PaCa2 cells, 24 hours, MTT, oil groups: active mixed with oil in equal proportions, read-out: IC50) came to 44.1 µg/mL (≈ 232 µM).
For the compound `CCCC=C1OC(=O)c2ccccc21` [BP, n-butylidenephthalide], in data set [2], the “solubility in sesame oil” value is listed as “good solubility”.
Consider `CCC/C=C1\OC(=O)c2ccccc21` [Z-BP, (Z)-n-butylidenephthalide], for which the IC50 in data set [1] (MIA PaCa-2, 24 h) was found to be 63.8 µg/mL (≈ 339 µM).

By IC50 is commonly meant the point on the concentration scale where inhibition reaches its midpoint.
